These results are taken from patent US20130217094A1, “ENZYME SOLUTION FOR SEPARATING CELL, METHOD FOR SEPARATING CELL AND METHOD FOR SEPARATING PANCREATIC ISLET” (BIO LINK, INCORPORATED, priority 2010, published 2013).

Test [1] concerns pancreatic islets. In words: Evaluation of damages in pancreatic islets (AO/PI staining, viability). It counts as cell-based, rats. To be noted: AO/PI fluorescence area, n=8 in each group; islets separated in Example 1. The text has this: The degree of damage of pancreatic islets can be evaluated based on whether or not a barrier function of the cell membrane can be maintained. Then, the pancreatic islets of each group separated in Example 1 (n=8 in each group) was stained with acridine orange (AO) and propidium iodide as fluorescent dye. Note here that AO is taken in cells even in living cells to emit green fluorescence, and PI is taken into cells by failure of the barrier function of the cell membrane and bound to DNA to emit red fluorescence. Specifically, AO (10 μM) and PI (15 μM) were dissolved in PBS to form a solution, the pancreatic islets were incubated in the resultant solution for 10 minutes, and then the pancreatic islets were observed under fluorescence microscope. Then, by using image analysis software (Image J free software), an area of the green fluorescence and an area of the red fluorescence were obtained, the rate (%) of the area of green fluorescence excluding the area of the red fluorescence was defined as the viability (%) of pancreatic islet.

For test [2], the system named is pancreatic islets. In words: Secretion of insulin by glucose stimulation (ELISA). Type of test: cell-based, rats. The following applies: 60 minutes, islets 150 to 200 μm, n=10. The method, then:
As a medium, RPMI1640 medium containing 3.3 mM glucose and 0.1% fetal bovine serum was used, and conditions were set at 37° C. and in 5% CO2/95% air condition. In measurement, the Transwell medium on which pancreatic islets were placed was subjected to RPMI1640 medium containing 3.3 mM glucose and 0.1% fetal bovine serum, and pre-cultured for 60 minutes. Note here that the culture was carried out at 37° C. and in 5% CO2/95% air conditions. Thereafter, the Transwell medium on which pancreatic islets were placed was moved to a new well containing the similar medium and stood still for 60 minutes (sample A). […] Thereafter, the media of the sample A and the sample B were recovered, and insulin contained in the medium was measured by using an insulin measurement kit (manufactured by Morinaga Biochemical Lab, Inc.) using the ELISA method. Then, the value obtained by dividing the insulin level of the sample B by the insulin level of the sample A was defined as an insulin secretion stimulation index.

For test [3], the system named is pancreatic islets. In words: Separation of pancreatic islets from rats with the enzyme solution: yield of pancreatic islets. Type of test: cell-based. The following applies: per rat, n=8; collagenase (2 mg/mL) Hanks' solution infused via pancreatic duct, 37° C. 32 minutes; DIDS 200 μM or NaCl substituted with sodium glutamate. The method, then:
The rats were grouped into three groups (a control group, a DIDS group, a low Cl^− group) each including 8 rats, then abdominal section was carried out to each rat under ether anesthesia, the choledoch duct was clamped in the vicinity of the entrance of the duodenum, and cannula was inserted. Then, 12 mL of Hanks' solution (NaCl: […], KCl: 400 mg/mL, MgSG4: 48.8 mg/mL, MgCl2: 46.8 mg/mL, CaCl2: 140 mg/mL, KH2PO4: 60 mg/mL, Na HPO4: 47.9 mg/mL and glucose: 1000 mg/mL) containing collagenase (2 mg/mL) was infused into the pancreas via the pancreatic duct from the cannula. However, to the DIDS group, DIDS (200 μM) as a chloride ion channel inhibitor was further added, and to the low Cl^− group, sodium chloride in the Hanks' solution was substituted with sodium glutamate.
The pancreas that had been swollen by infusion of the solution was extracted, and incubated at 37° C. for 32 minutes. Thereafter, degraded tissue was placed into 50 mL conical tube, and the Hanks' solution at 4° C. was added so as to stop the enzyme reaction. The tube was gently shaken, and subjected to centrifugation at 320G for 10 to 15 seconds. […]
For the yield of the pancreatic islets, IEQ (islet equivalents; the number of pancreatic islets based on the diameter of 150 μm) as a unit is used. […] Note here that the number of pancreatic islets whose diameter was less than 50 μm was not counted.

Test [4] deals with diabetes model SCID mice. In words: Transplantation of pancreatic islets to diabetes model SCID mice. Type of test: in vivo. The method, then: Note here that in the following Examples, rats at an age of 9 to 10 weeks were used as a donor of the pancreatic islets. Furthermore, as a recipient, SCID mice at an age of 9 to 10 weeks were used. Streptozocin (STZ; 250 mg/kg) was intraperitoneally administered to SCID mice under anesthesia of diethyl ether, and β cells were destroyed to induce diabetes. Mice whose casual blood glucose level exceeds 350 mg/dL for two continuous days were regarded as diabetes mice, and they were used as the recipients. […] For the screening of the diabetes model SCID mice, mice whose casual blood glucose level exceeds 350 mg/dL for two continuous days by collection of blood were employed. In transplantation, the mice were subjected to ether anesthesia, and pancreatic islet was infused into the renicapsule of the left kidney by using a 250 μL pipette tip. After transplantation, the blood was recovered every day for the first seven days, and the blood glucose level was measured, and thereafter, the blood glucose level was measured three times a week. Then, on Day 30 after transplantation, the pancreatic islet-transplanted kidney was extracted. Note here that the definition of cure of diabetes was a case in which the blood glucose level was less than 150 mg/dL for three continuous days and the blood glucose level after nephrectomy was increased to more than 250 mg/dL.

In the case of `O=S(=O)([O-])c1cc(N=C=S)ccc1C=Cc1ccc(N=C=S)cc1S(=O)(=O)[O-].[Na+].[Na+]` [DIDS, 4,4′-di(isothiocyano)stilbene-2,2′-disodium disulfonate], the “viability of the pancreatic islets” value in test [1] amounted to 84.9±4.9%. Further, the “insulin secretion sample A (3.3 mM glucose)” value in test [2] (3.3 mM glucose) was determined as 1.94 ± 0.44 μU. Further, in test [2] (20 mM glucose), the “insulin secretion sample B (20 mM glucose)” value is given as 19.0 ± 4.46 μU. Further, the “yield of the pancreatic islets” value in test [3] was found to be 1969±244 IEQ. Besides, the “blood glucose level on Day 1 to 2 after the transplantation” value in test [4] (200 IEQ islets transplanted to renicapsule of left kidney, STZ diabetes SCID mice, n=5) amounted to 78.7 ± 52.7 mg/dL. Further, the “mice that came to have a normal blood glucose (<150 mg/dL)” value in test [4] (200 IEQ islets transplanted, n=5 in each group) is “all of five mice”.
